Values of other authors as cited in patent US5496811A, “Submicron emulsions as ocular drug delivery vehicles” (priority 1992, dated 1996).

solubility in oil (oil)	Compound	solubility in water	solubility in alkaline solutions (alkaline solutions)	stability in alkaline solutions (alkaline solutions)
sparingly soluble in oil	CCC1C(=O)OCC1Cc1cncn1C (centres unmarked) [Pilocarpine, 3-ethyldihydro-4-[(1-methyl-1H-imidazole-5-yl)methyl]-2(3H)-furanon]	soluble in water	–	–
–	COc1ccc2c(c1)c(CC(=O)O)c(C)n2C(=O)c1ccc(Cl)cc1 [Indomethacin]	practically insoluble in water	soluble in alkaline solutions	unstable under these conditions
